Results reported in patent publication US12528837B2, “Aryl substituted polymyxin derivatives” (priority 2018, dated 2026).
≈ marks a conversion by molar mass, not a printed value. Where two headings read alike, the source gives them in different places. Each block holds one compound with its values, some of them ahead of it. *1 amine or outer side, *2 acyl side, *3 side chain or, on linkers, in order; H or OH if unused. Where a SMILES comes first, the peptide text is derived from it. Bridges are numbered along the chain shown (N, C = ends). [ ]: non-standard residue; d: D form. The star is where a group is joined. GABA(3S-Bn) = O=C(C[C@@H](CN[*:1])Cc1ccccc1)[*:2]; X21 = NC[C@H](CC(=O)*)c1cc(Cl)cc(Cl)c1; X22 = CC(C)Cc1cccc([C@H](CN)CC(=O)*)c1; X7 = NC[C@H](CC(=O)*)c1cccc(Cl)c1; dNle = CCCC[C@@H](N)C(=O)O; Dab = NCC[C@H](N)C(=O)O; Abu = CC[C@H](N)C(=O)O; Dap = NC[C@H](N)C(=O)O

How the values were obtained:
E. coli CA58 = assay type: cell-based
Protocol: (§1) The inoculum was prepared by making a direct suspension of isolated colonies (selected from an 18-24 hour Mueller-Hinton agar plate) adjusted to the 0.5 McFarland standard. […] The assays were performed in duplicate. […] Several of the compounds were subjected to multiple tests, and where this is the case, the MIC presented is the median value obtained. The MIC values are quoted in μg/mL.

K. pneumoniae CA64 = assay type: cell-based
Protocol: as §1

P. aeruginosa CCUG 59347 = assay type: cell-based
Protocol: as §1

E. coli ATCC 25922 = assay type: cell-based
Protocol: (§2) The inoculum was prepared by making a direct suspension of isolated colonies (selected from an 18-24 hour Mueller-Hinton agar plate) adjusted to the 0.5 McFarland standard. […] The assays were performed in duplicate. […] The MIC values are quoted in μg/mL.

K. pneumoniae ATCC 13822 = assay type: cell-based
Protocol: as §2

P. aeruginosa ATCC 27853 = assay type: cell-based
Protocol: as §2

HK-2 cells = assay: In vitro renal cell toxicity assay (HK-2); assay type: cell-based
Protocol: The in vitro renal cell toxicity assay was performed according to the following protocol. […] Cells were seeded at 7,500 cells per well in 96-well plates and allowed to adhere overnight. […] Water and DMSO levels were kept constant at 5% and 0.5% respectively. The test compounds were incubated with cells for 24 h at 37° C. 5% CO2 in a humidified atmosphere. […] Media only background values were subtracted before the data was analysed using GraphPad Prism. Individual values were normalised to the vehicle control wells for each compound. Compound concentration values were plotted as log values to enable a dose-response curve to be fitted. The bottom of the curve was constrained to zero and IC50 values were determined. IC50 values are expressed relative to that for PMB in the same experiment. Where multiple determinations have been made, median values are presented.

[1] = Kidney drug level after subcutaneous dose in mouse; assay type: in vivo
Protocol: Four hours after dosing the animals were euthanised and kidneys removed, trimmed of fat and connective tissue, weighed and immediately snap-frozen. After thawing at room temperature, pairs of kidneys from each animal were placed in 2 mL conical tubes containing pre-weighed ceria-stabilised zirconium oxide beads. […] After 10 min. centrifugation at 13,000 rpm and 6° C., 200 μl of the supernatants were transferred into glass inserts and analysed by LC-MS-MS.

[2] = system: A. baumannii ATCC BAA-747; assay type: cell-based
Protocol: as §2

A. baumannii NCTC 13424 = assay type: cell-based
Protocol: as §2

[3] = cation-adjusted Mueller-Hinton Broth, 18-20 h, 35° C.

SMILES: CCCC[C@H]1NC(=O)[C@H](CCN)NC(=O)[C@@H](NC(=O)[C@H](CN)NC(=O)[C@@H](NC(=O)C[C@@H](CN)c2cc(Cl)cc(Cl)c2)[C@@H](C)O)CCNC(=O)[C@H]([C@@H](C)O)NC(=O)[C@H](CCN)NC(=O)[C@H](CCN)NC(=O)[C@H](CC)NC1=O [Example 29, (R)-4-amino-3-(3,5- dichlorophenyl)butanoyl- Thr-Dap- Cyclo[Dab-Dab- DnorLeu-Abu-Dab- Dab-Thr]] (X21-T[Dap][Dab][Dab][dNle][Abu][Dab][Dab]T; lactam 3-C)
- MIC E. coli CA58 (E. coli CA58; [3]): 16 µg/mL (≈ 14.3 µM)
- MIC K. pneumoniae CA64 (K. pneumoniae CA64; [3]): 8 µg/mL (≈ 7.16 µM)
- MIC P. aeruginosa CCUG 59347 (P. aeruginosa CCUG 59347; [3]): 0.5 µg/mL (≈ 0.448 µM)
- MIC E. coli ATCC 25922 (E. coli ATCC 25922; [3]): 0.25 µg/mL (≈ 0.224 µM)
- MIC K. pneumoniae ATCC 13822 (K. pneumoniae ATCC 13822; [3]): 0.25 µg/mL (≈ 0.224 µM)
- MIC P. aeruginosa ATCC 27853 (P. aeruginosa ATCC 27853; [3]): 0.25 µg/mL (≈ 0.224 µM)

- MIC E. coli CA58 (E. coli CA58; CA58): 8 µg/mL (≈ 6.99 µM)
- MIC K. pneumoniae CA64 (K. pneumoniae CA64; CA64): 8 µg/mL (≈ 6.99 µM)
- MIC P. aeruginosa CCUG 59347 (P. aeruginosa CCUG 59347; CCUG 59347): 0.5 µg/mL (≈ 0.437 µM)
- MIC A. baumannii ATCC BAA-747 ([2]; ATCC BAA-747): 0.5 µg/mL (≈ 0.437 µM)
- MIC A. baumannii NCTC 13424 (A. baumannii NCTC 13424; NCTC 13424): 0.5 µg/mL (≈ 0.437 µM)
SMILES: CC(C)C[C@@H]1NC(=O)[C@@H](Cc2ccccc2)NC(=O)[C@H](CCN)NC(=O)[C@@H](NC(=O)[C@H](CN)NC(=O)[C@@H](NC(=O)C[C@@H](CN)c2cccc(Cl)c2)[C@@H](C)O)CCNC(=O)[C@H]([C@@H](C)O)NC(=O)[C@H](CCN)NC(=O)[C@H](CCN)NC1=O [Example 6, (R)-4-amino-3-(3- chlorophenyl) butanoyl- Thr-Dap-Cyclo[Dab- Dab-DPhe-Leu-Dab- Dab-Thr]] (X7-T[Dap][Dab][Dab][dF]L[Dab][Dab]T; lactam 3-C)
- HK-2 rel to PMB (HK-2 cells): 7.8
- 4 hr kidney level/rel. cytotoxicity ([1]; mouse, in vivo): 49

- MIC E. coli CA58 (E. coli CA58; CA58): 16 µg/mL (≈ 14.5 µM)
- MIC K. pneumoniae CA64 (K. pneumoniae CA64; CA64): 2 µg/mL (≈ 1.81 µM)
- MIC P. aeruginosa CCUG 59347 (P. aeruginosa CCUG 59347; CCUG 59347): 0.5 µg/mL (≈ 0.453 µM)
- MIC E. coli ATCC 25922 (E. coli ATCC 25922; ATCC 25922): 0.25 µg/mL (≈ 0.226 µM)
- MIC K. pneumoniae ATCC 13822 (K. pneumoniae ATCC 13822; ATCC 13822): 0.25 µg/mL (≈ 0.226 µM)
- MIC P. aeruginosa ATCC 27853 (P. aeruginosa ATCC 27853; ATCC 27853): 0.5 µg/mL (≈ 0.453 µM)
SMILES: CC[C@@H]1NC(=O)[C@@H](CC(C)C)NC(=O)[C@H](CCN)NC(=O)[C@@H](NC(=O)[C@H](CN)NC(=O)[C@@H](NC(=O)C[C@@H](CN)c2cccc(CC(C)C)c2)[C@@H](C)O)CCNC(=O)[C@H]([C@@H](C)O)NC(=O)[C@H](CCN)NC(=O)[C@H](CCN)NC1=O [Example 27, (R)-4-amino-3-(3- isobutylphenyl)butanoyl- Thr- Dap- Cyclo[Dab-Dab-DLeu- Abu-Dab-Dab-Thr]] (X22-T[Dap][Dab][Dab][dL][Abu][Dab][Dab]T; lactam 3-C)

SMILES: CC(C)C[C@@H]1NC(=O)[C@@H](Cc2ccccc2)NC(=O)[C@H](CCN)NC(=O)[C@@H](NC(=O)[C@H](CN)NC(=O)[C@@H](NC(=O)C[C@@H](CN)Cc2ccccc2)[C@@H](C)O)CCNC(=O)[C@H]([C@@H](C)O)NC(=O)[C@H](CCN)NC(=O)[C@H](CCN)NC1=O [Example 10, (S)-4-amino-3- benzylbutanoyl-Thr- Dap-Cyclo[Dab-Dab- DPhe-Leu-Dab-Dab- Thr]. Isomer 2] ({GABA(3S-Bn)}-T[Dap][Dab][Dab][dF]L[Dab][Dab]T; lactam 3-C)
- HK-2 rel to PMB (HK-2 cells; IC50 relative to PMB in the same experiment, 24 h): 8
- Drug level in kidney ([1]; mouse, 17.2 mg/kg sc, 4 hours): 346 µg/g
- tissue level at time at 4 h ([1]; mouse, in vivo, mice, 17.2 mg/kg free base sc, 4 h, read-out: 4 hr kidney level): 346000 ng/g
- 4 hr kidney level/rel. cytotoxicity ([1]; ratio of 4 h kidney level to HK-2 IC50 relative to PMB): 43
- MIC E. coli CA58 (E. coli CA58; [3]): 8 µg/mL (≈ 7.12 µM)
- MIC K. pneumoniae CA64 (K. pneumoniae CA64; [3]): 16 µg/mL (≈ 14.2 µM)
- MIC P. aeruginosa CCUG 59347 (P. aeruginosa CCUG 59347; [3]): 0.25 µg/mL (≈ 0.222 µM)
- MIC A. baumannii ATCC BAA-747 [2, 3]: 0.25 µg/mL (≈ 0.222 µM)
- MIC A. baumannii NCTC 13424 (A. baumannii NCTC 13424; [3]): 0.25 µg/mL (≈ 0.222 µM)
- MIC K. pneumoniae ATCC 13822 (K. pneumoniae ATCC 13822; [3]): 0.5 µg/mL (≈ 0.445 µM)
